The NIST ThermoML archive (doi:10.1016/j.jct.2012.05.015)
“And” between values parts separate entries of the source, which are not always exact repeats. Equal entries are not always repeated.

Settings: Liquid, Calculated from knudsen effusion weight loss

Nc1ccnc(N)n1 [2,4-pyrimidinediamine]
Settings | vapor or sublimation pressure
335.12 K | 7.78e-05 kPa and 7.75e-05 kPa and 7.72e-05 kPa
338.18 K | 0.000109 kPa and 0.00011 kPa and 0.000105 kPa
341.17 K | 0.00015 kPa and 0.000145 kPa and 0.000141 kPa
344.12 K | 0.000208 kPa and 0.000202 kPa and 0.000212 kPa
347.17 K | 0.000291 kPa and 0.000283 kPa and 0.000274 kPa
350.17 K | 0.000391 kPa and 0.000378 kPa
353.12 K | 0.000554 kPa and 0.000535 kPa and 0.000532 kPa
356.18 K | 0.00074 kPa and 0.000736 kPa and 0.000697 kPa
359.16 K | 0.000989 kPa and 0.000945 kPa and 0.000904 kPa

Nc1cc(N)nc(N)n1 [2,4,6-pyrimidinetriamine]
Settings | vapor or sublimation pressure
391.14 K | 7.42e-05 kPa and 7.31e-05 kPa and 7.14e-05 kPa
393.15 K | 9.48e-05 kPa and 8.89e-05 kPa and 8.51e-05 kPa
395.15 K | 0.00011 kPa and 0.000107 kPa and 0.0001 kPa
397.13 K | 0.000131 kPa and 0.000124 kPa and 0.000141 kPa
399.13 K | 0.000167 kPa and 0.000166 kPa and 0.000148 kPa
401.15 K | 0.0002 kPa and 0.000188 kPa and 0.000186 kPa
403.15 K | 0.000247 kPa and 0.000237 kPa and 0.000215 kPa
405.15 K | 0.000292 kPa and 0.000287 kPa and 0.000258 kPa
407.15 K | 0.000345 kPa and 0.000316 kPa and 0.000319 kPa
409.12 K | 0.000393 kPa and 0.000407 kPa and 0.000375 kPa
411.12 K | 0.000484 kPa and 0.000487 kPa and 0.000439 kPa
413.15 K | 0.000593 kPa and 0.00054 kPa and 0.000536 kPa
